# Experimental data reported in patent US11226332B2, “Method for the detection, preparation and depletion of CD4+ t lymphocytes” (IMCYSE SA, priority 2013, dated 2022).
# Legend:
# [1] = system: human peripheral blood CD4+ T cells; assay: DQ8 tetramers loaded with insulin B9-23 peptide, facs sorting of CD4+ T cells for TCR alpha chain sequencing; type: cell-based; settings: control SEQ ID 10 without thioreductase motif
# Excerpt: Expression of human DQ8 MHC class II molecule is associated with reactivity to a major epitope of insulin, located in the beta chain of insulin within the amino acid sequence 9-23. Human peripheral blood naïve T cell repertoire frequently contains cells expressing germline encoded alpha chain sequences, called Trav13-1, associated with various beta chain sequences, but which are sufficient as to confer a low affinity reaction with the B9-23 insulin epitope when presented by DQ8.
# Peptides encompassing the sequences of the B9-23 epitope with a thioreductase motif and a one amino acid glycine linker are produced, namely […] INS9-23 (SEQ ID 9) and control peptides without thioreductase motif and linker […] INS9-23 (SEQ ID 10)
# Tetramers of DQ8 are produced and loaded with each one of peptides of SEQ ID 9 or SEQ ID 10. Loaded tetramers are incubated with human peripheral blood CD4+ T cells. Cells are washed, analysed by facs and sorted out. Cells are then washed from tetramers and used for TCR alpha chain sequencing using corresponding primers.
# [2] = system: CD4+ T cells from peripheral blood; assay: MHC class II tetramers loaded with influenza hemagglutinin peptide, counting of CD4+ T cells by facs before and after vaccination; type: cell-based; settings: fluorescence-labeled MHC class II tetramers loaded with peptide; compared with peptide of SEQ ID 4 without thioreductase motif
# [3] = system: MOG-specific naïve CD4+ T cells; assay: DRB1*1501 MHC class II tetramers loaded with MOG peptide, detection of naïve CD4+ T cells by facs; type: cell-based, human; settings: DRB1*1501 tetramers loaded with peptide, 2 h at 37° C, control: same peptide without thioreductase motif (SEQ ID NO:2)
# Procedure: Naïve CD4+ T cells are prepared from the peripheral repertoire of DRB1*1501+ subjects susceptible to suffer from multiple sclerosis, using magnetic beads to remove CD4(−) cells and memory cells, as described in the art. Tetramers of DRB1*1501 are made as known in the art (Kasprowicz V et al. (2006) J. Virol. 80, 11209-112017), including a fluorescent label such as Ficoerythrin. A synthetic peptide is produced, which encompasses the corresponding class II-restricted MOG
# T cell epitope and a thioreductase motif CGPCSRVVHLYRNGK D [SEQ ID NO: 1], which corresponds to amino acid residues 47-58 of the MOG protein.
# Tetramers are loaded with peptide of SEQ ID 1 overnight at room temperature in the appropriate buffer conditions as known in the art. Loaded tetramers are then washed and incubated with naïve CD4+ T cells for 2 h at 37° C. The suspension is then read with a fluorescence-activated cell sorting (facs) system and the proportion of naïve cells specific to the MOG peptide evaluated Control experiments are performed with MHC complex with the same peptide without thioreductase motif. SRVVHLYRNGKD [SEQ ID NO:2].
# [4] = system: GAD65-specific CD4+ T cells; assay: Sorting of GAD65-specific CD4+ T cells from NOD mouse spleen with peptide-loaded class II tetramers and expansion to cytolytic CD4+ T cells; type: cell-based, NOD mice
# Procedure: NOD (non-obese diabetic) mice spontaneously develop diabetes by progressive destruction of insulin-producing Langerhans islet cells. NOD mice are considered as a representative pre-clinical model of human IDDM. Effector CD4+ T cells against GAD65 are prepared from the spleen of diseased animals by first depleting non-CD4+ cells. CD4+ cells are then incubated with class II tetramers loaded with a GAD65 class II restricted epitope encompassing a thioreductase motif in flanking residues.
# The sequence of the peptide is therefore CRLCKVAPVIKARMM (GAD65 524-543) (SEQ ID NO: 7) A peptide of GAD65 without thioreductase motif is prepared for control experiments KVAPVIKARMM (SEQ ID NO: 8).
# Cells are then sorted by facs according to their binding of peptide-loaded tetramers. Positive cells are then maintained in culture and stimulated with APC loaded with peptide of SEQ ID 7 to generate cytolytic CD4+ T cells, as described in the WO2008017517 patent application.
# [5] = system: Dby-specific CD4+ T cells; assay: Depletion of Dby-specific CD4+ T cells with peptide-loaded H-2b class II beads, then male bone marrow grafting in reconstituted RAG2 KO mice; type: in vivo, mouse; settings: RAG2 KO mice reconstituted with female H-2b lymphocytes depleted on beads coated with class II H-2b molecules loaded with peptide
# Excerpt: In the mouse model, male bone marrow is rejected by syngeneic females due to recognition of H-Y encoded antigens among which the Dby protein plays a major role. A majority of CD4+ T cells recognize an epitope made of residues FNSNRANSS of the murine Dby antigen which is encoded by the […]
# A synthetic peptide made of this class II restricted T cell epitope with a thioreductase motif is produced, corresponding to CHGCFNSNRANSS [SEQ ID NO:5] and the corresponding Dby peptide in natural configuration is produced as a control, namely […].
# Lymphocytes from the spleen of female H-2b mice are prepared by magnetic bead sorting. The cells are then incubated with a suspension of beads coated with class II H-2b molecules and loaded with peptide of SEQ ID 5 or of SEQ ID 6. Lymphocytes T cells, containing all CD4+ T cells not retained on beads and CD8+ T cells, are used to reconstitute RAG2 KO mice, which are then engrafted by the bone marrow of a male syngeneic donor. RAG2 KO mice have no functional adaptive immune system and are therefore unable to reject the graft. Rejection is thereby depending only of cells present in the passively transferred population.
sequence,measurement,setting,value
CGHCGSHLVEALYLVCGERG (redox motif + glycine linker+ insulin epitope) [SEQ ID 9],number of cells obtained by tetramer sorting for TCR sequencing,[1],obtained in sufficient number as to allow TCR sequencing
CGHCKYVKQNTLKHEMAGG (redox motif + influenza hemaglutinin epitope) [SEQ ID 3],number of CD4+ T cells detected in peripheral blood,[2],higher number of CD4+ T cells are detected
CGPCSRVVHLYRNGKD [SEQ ID 1],detection of naïve CD4+ T cells specific to the MOG sequence,[3],able to detect naïve CD4+ T cells
CRLCKVAPVIKARMM (redox motif + GAD65 epitope) [SEQ ID 7],yield of GAD65-specific cytolytic CD4+ T cells,[4]; tetramer sorting compared with the method of WO2008017517 (peptide added to T cells from spleen of NOD mice),higher
same,yield of GAD65-specific cytolytic CD4+ T cells,[4]; tetramers loaded with peptide of SEQ ID 7 instead of peptide of SEQ ID 8,significantly increased
FNSNRANSS (Dby epitope) [SEQ ID 6],graft acceptance (male bone marrow),[5],no improvement of graft acceptance
